Like-named read-outs stand apart in the source and are kept apart here.
Columns and labels:
Jack Bean α-mannosidase = biological target: T1, Jack Bean α-mannosidase (Canavalia ensiformis, UniProt C0HJB3); test: Inhibition of Jack Bean α-mannosidase; type: biochemical
T1 construct: purchased Sigma
T1 sequence (C0HJB3 1-981): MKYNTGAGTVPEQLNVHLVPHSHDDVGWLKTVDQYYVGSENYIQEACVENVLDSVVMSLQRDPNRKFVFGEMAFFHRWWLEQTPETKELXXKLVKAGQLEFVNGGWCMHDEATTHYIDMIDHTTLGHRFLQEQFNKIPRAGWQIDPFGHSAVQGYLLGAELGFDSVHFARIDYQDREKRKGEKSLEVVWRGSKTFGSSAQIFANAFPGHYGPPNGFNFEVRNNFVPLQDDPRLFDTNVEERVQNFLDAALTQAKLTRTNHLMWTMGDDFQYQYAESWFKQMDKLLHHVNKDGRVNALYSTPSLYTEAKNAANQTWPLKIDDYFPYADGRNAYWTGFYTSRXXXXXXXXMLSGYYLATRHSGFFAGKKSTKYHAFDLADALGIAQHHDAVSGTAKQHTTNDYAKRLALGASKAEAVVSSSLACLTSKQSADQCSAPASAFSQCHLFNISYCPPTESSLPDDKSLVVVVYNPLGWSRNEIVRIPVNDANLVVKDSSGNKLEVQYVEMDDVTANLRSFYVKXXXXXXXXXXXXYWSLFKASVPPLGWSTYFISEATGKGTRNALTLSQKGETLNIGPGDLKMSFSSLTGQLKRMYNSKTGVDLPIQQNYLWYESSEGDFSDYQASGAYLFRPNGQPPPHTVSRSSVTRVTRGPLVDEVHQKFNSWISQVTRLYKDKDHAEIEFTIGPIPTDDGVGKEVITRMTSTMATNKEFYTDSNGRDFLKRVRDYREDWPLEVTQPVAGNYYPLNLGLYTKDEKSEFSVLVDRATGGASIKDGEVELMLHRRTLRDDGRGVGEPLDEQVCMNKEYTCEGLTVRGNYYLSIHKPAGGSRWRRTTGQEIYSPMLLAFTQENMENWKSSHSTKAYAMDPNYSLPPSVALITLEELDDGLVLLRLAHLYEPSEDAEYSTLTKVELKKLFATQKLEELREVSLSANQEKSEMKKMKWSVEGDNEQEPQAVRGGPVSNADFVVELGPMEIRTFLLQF
Protocol: Jack Bean α-mannosidase (Sigma, 38 U/ml) was diluted 1/800, 10 μl was added to each well and the plates were incubated for 20 min at 37° C. The reaction was stopped by the addition of 150 μl of 0.5M sodium carbonate and formation of p-nitrophenol was measured with a plate set at 405 nm.

B16F10 melanoma cells [1] = test: Lung colonization assay; type: in vivo, C57B1/6J mice; details: for Survivors at day 28: injected i.v.; for survival of mice 28 days after injection of treated tumor cells: versus 2-toluoyloxy-SW treated or untreated B16F10 cells
Protocol: B16F10 melanoma cells were maintained in log-phase growth in MEM plus 10% FCS (Gibco) either untreated or treated for 48 hr with SW or analogues of SW. Cells were harvested with trypsin/EDTA (Gibco), washed and 10^5 melanoma cells in 100 μl of phosphate buffered saline (PBS) were injected into the lateral tail vein of male C57B1/6J mice. The lungs were removed from the mice and tumor nodules were counted at death or on day 28 when the experiment was terminated.
B16F10 melanoma cells were injected into the lateral tail vein of C57B1/6 mice at 10^5 cells/mouse. […] The experiment was terminated on day 28 and lung colonies in the mice were counted.

lysosomal mannosidase = test: Lysosomal mannosidase assay (pH 5.0); type: biochemical; details: para-nitrophenyl α-mannose
Protocol: The assay for rat liver Golgi α-mannosidase II contained 5 mM para-nitrophenylα-mannose, 40 mM sodium acetate pH 5.6, plus serially diluted test compouunds and mannosidase enzyme in a total volume of 50 ul, in 96 well plates. Plates were incubated 45 min at 37° C., then the reaction was stopped with 50 μl of 0.5M sodium carbonate. The absorbance of reaction products was read at 405 nm. The lysosomal mannosidase was done in the same procedure but with 40 mM sodium acetate buffer pH 5.0. The numbers in the table are IC50 values in μM for inhibition of mannosidase activity.

MDAY-D2 tumor cells = details: cited from earlier work
B16F10 melanoma cells [2] = details: 1000 ng/ml; cited from earlier work
[3] = p-nitrophenyl α-D-mannopyranoside, pH 5.0, 20 min 37° C., read-out: IC50 for inhibition of J.B. α-mannosidase
[4] = tumor cells cultured 48 hr with 0.02 ug/ml drug
[5] = tumor cells cultured 48 hr with 0.1 ug/ml drug
[6] = tumor cells cultured 48 hr with 1.0 ug/ml drug

O=C(OC1CN2CCCC(O)C2C1O)c1ccccc1 (stereo not drawn) [2-benzoyloxy-SW]
IC50 (Jack Bean α-mannosidase; [3]): 350 µM

CCCC(=O)OC1CN2CCCC(O)C2C1O (stereo not drawn) [2-butanoyloxy-SW]
IC50 (Jack Bean α-mannosidase): 123 µM | reduction of inhibitor activity / greater IC50 for α-mannosidase in vitro compared to SW (Jack Bean α-mannosidase; compared to SW): 300 fold

CCCCCCCC(=O)OC1CN2CCCC(O)C2C1O (stereo not drawn) [2-octanoyloxy-SW]
reduction of inhibitor activity / greater IC50 for α-mannosidase in vitro compared to SW (Jack Bean α-mannosidase; compared to SW): 300 fold | IC50 (Jack Bean α-mannosidase; [3]): 123 µM | lung colonies (mean ± range) (B16F10 melanoma cells [1]; [4]): 9 (5-17) | Survivors at day 28 (B16F10 melanoma cells [1]; [4]): 3/5 | lung colonies (mean ± range) (B16F10 melanoma cells [1]; [5]): 13 (8-20) | Survivors at day 28 (B16F10 melanoma cells [1]; [5]): 3/5 | lung colonies (mean ± range) (B16F10 melanoma cells [1]; [6]): 1 (0-2) | Survivors at day 28 (B16F10 melanoma cells [1]; [6]): 2/5 | survival of mice 28 days after injection of treated tumor cells (B16F10 melanoma cells [1]): significantly higher

O=C(OC1CN2CCCC(O)C2C1O)c1ccc([N+](=O)[O-])cc1 (stereo not drawn) [2-p-nitrobenzoyloxy-SW]
reduction of inhibitor activity / greater IC50 for α-mannosidase in vitro compared to SW (Jack Bean α-mannosidase; compared to SW): 300 fold | IC50 (Jack Bean α-mannosidase; [3]): 123 µM

Cc1ccc(C(=O)O[C@@H]2CN3CCC[C@@H](O)[C@@H]3[C@@H]2O)cc1 [2-toluoyloxy-SW]
IC50 (Jack Bean α-mannosidase; [3]): 350 µM | lung colonies (mean ± range) (B16F10 melanoma cells [1]; [5]): > 100 | Survivors at day 28 (B16F10 melanoma cells [1]; [5]): 0/5 | lung colonies (mean ± range) (B16F10 melanoma cells [1]; [6]): > 100 | Survivors at day 28 (B16F10 melanoma cells [1]; [6]): 0/5

OC1CN2C[C@@H](O)[C@@H](O)[C@H]2[C@H](O)C1O (stereo partly drawn) [6,7-dihydroxy-SW]
less active than SW in the Jack Bean α-mannosidase assay (Jack Bean α-mannosidase; compared to SW): 100 times | IC50 (Jack Bean α-mannosidase; [3]): 50 µM

CCCCCCCCCCCCCC(=O)OC1CCCN2CC(O)C(O)C12 (stereo not drawn) [8-myristinoyloxy-SW]
IC50 (Jack Bean α-mannosidase; [3]): > 500 µM

CCCCCCCCCCCCCCCC(=O)OC1CCCN2CC(O)C(O)C12 (stereo not drawn) [8-palmitoyloxy-SW]
IC50 (Jack Bean α-mannosidase; [3]): 240 µM

O[C@H]1[C@H]2[C@H](O)CCCN2C[C@H]1O [SW, Swainsonine, reference compound]
lung colonies (mean ± range) (B16F10 melanoma cells [1]; [4]): 23 (15-31) | Survivors at day 28 (B16F10 melanoma cells [1]; [4]): 2/5 | lung colonies (mean ± range) (B16F10 melanoma cells [1]; [5]): 5 (2-10) | Survivors at day 28 (B16F10 melanoma cells [1]; [5]): 4/5 | lung colonies (mean ± range) (B16F10 melanoma cells [1]; [6]): 3 (0-4) | Survivors at day 28 (B16F10 melanoma cells [1]; [6]): 4/5 | survival of mice 28 days after injection of treated tumor cells (B16F10 melanoma cells [1]): significantly higher | IC50 (lysosomal mannosidase): 0.082 µM | L-PHA concentration to which cells cultured in the presence of SW are resistant (MDAY-D2 tumor cells): > 100 µg/mL | inhibition of organ colonization by B16F10 melanoma cells (B16F10 melanoma cells [2]): > 90%
